Patent US20140323418A1, “SELECTIVE KINASE INHIBITORS” (PORTOLA PHARMACEUTICALS, INC., priority 2011, published 2014)

Target: T1, full length active recombinant SYK enzyme (Homo sapiens, UniProt P43405)
T1 construct: full length active recombinant SYK enzyme (Millipore, Calif.); purchased Millipore
Test: Inhibition of Syk tyrosine phosphorylation activity (LANCE TR-FRET kinase assay)
Type: biochemical
Settings: 1 nM SYK, 550 nM substrate, 100 μM ATP, 1 hour room temperature

IC50 [µM]	Structure (SMILES)
0.001 to 0.01	C[C@@H](Nc1ncc(C(N)=O)c(Nc2cccc(-n3cccn3)c2)n1)C1(N)CC1 [Example 143, (R)-4-(3-(1H-pyrazol-1-yl)phenylamino)-2-(1-(1-aminocyclopropyl)ethylamino)pyrimidine-5-carboxamide]
0.001 to 0.01	Cc1cccc(Nc2nc(N[C@H](C(C)C)C3(N)CC3)ncc2C(N)=O)c1 [Example 144, (R)-2-(1-(1-aminocyclopropyl)-2-methylpropylamino)-4-(m-tolylamino)pyrimidine-5-carboxamide]
0.01 to 0.1	Cc1ccc(Nc2nc(N[C@H](C)C3(N)CC3)ncc2C(N)=O)cc1 [Example 146, (R)-2-(1-(1-aminocyclopropyl)ethylamino)-4-(p-tolylamino)pyrimidine-5-carboxamide]
0.01 to 0.1	Cc1cccc(Nc2nc(N[C@H](c3ccccc3)C3(N)CC3)ncc2C(N)=O)c1 [Example 147, (R)-2-(1-(1-aminocyclopropyl)(phenyl)methylamino)-4-(m-tolylamino)pyrimidine-5-carboxamide]
0.01 to 0.1	NC(=O)c1cnc(N[C@H](c2ccccc2)C2(N)CC2)nc1Nc1cccc(-n2nccn2)c1 [Example 149, (R)-4-(3-(2H-1,2,3-triazol-2-yl)phenylamino)-2-(1-(1-aminocyclopropyl)(phenyl)methylamino)pyrimidine-5-carboxamide]
0.01 to 0.1	NC(=O)c1cnc(N[C@H](c2ccccc2)C2(N)CC2)nc1Nc1cccc(-c2ncccn2)c1 [Example 150, (R)-2-(1-(1-aminocyclopropyl)(phenyl)methylamino)-4-(3-(pyrimidin-2-yl)phenylamino)pyrimidine-5-carboxamide]
0.01 to 0.1	NC(=O)c1cnc(N[C@H](C2CC2)C2(N)CC2)nc1Nc1ccc2c(c1)CCCN2 [Example 153, (R)-2-(1-(1-aminocyclopropyl)(cyclopropyl)methylamino)-4-(1,2,3,4-tetrahydroquinolin-6-ylamino)pyrimidine-5-carboxamide]
0.001 to 0.01	CC[C@@H](Nc1ncc(C(N)=O)c(Nc2cnc3ccccc3c2)n1)C1(N)CC1 [Example 154, (R)-2-(1-(1-aminocyclopropyl)propylamino)-4-(quinolin-3-ylamino)pyrimidine-5-carboxamide]
0.001 to 0.01	NC(=O)c1cnc(N[C@H](C2CC2)C2(N)CC2)nc1Nc1ccc2ncccc2c1 [Example 155, (R)-2-(1-(1-aminocyclopropyl)(cyclopropyl)methylamino)-4-(quinolin-6-ylamino)pyrimidine-5-carboxamide]
0.01 to 0.1	NC(=O)c1cnc(N[C@H](C2CC2)C2(N)CC2)nc1Nc1cc(F)cc(F)c1 [Example 157, (R)-2-(1-(1-aminocyclopropyl)(cyclopropyl)methylamino)-4-(3,5-difluorophenylamino)pyrimidine-5-carboxamide]
0.001 to 0.01	CC(C)[C@@H](Nc1ncc(C(N)=O)c(Nc2cnc3ccccc3c2)n1)C1(N)CC1 [Example 158, (R)-2-(1-(1-aminocyclopropyl)-2-methylpropylamino)-4-(quinolin-3-ylamino)pyrimidine-5-carboxamide]
0.001 to 0.01	Cn1ncc2c(Nc3nc(N[C@H](C4CC4)C4(N)CC4)ncc3C(N)=O)cccc21 [Example 162, (R)-2-(1-(1-aminocyclopropyl)(cyclopropyl)methylamino)-4-(1-methyl-1H-indazol-4-ylamino)pyrimidine-5-carboxamide]
0.001 to 0.01	NC(=O)c1cnc(N[C@H](C2CC2)C2(N)CC2)nc1Nc1cccc(-n2cncn2)c1 [Example 163, (R)-4-(3-(1H-1,2,4-triazol-1-yl)phenylamino)-2-(1-(1-aminocyclopropyl)(cyclopropyl)methylamino)pyrimidine-5-carboxamide]
0.01 to 0.1	NC(=O)c1cnc(N[C@H](C2CC2)C2(N)CC2)nc1Nc1ccc2scnc2c1 [Example 166, (R)-2-(1-(1-aminocyclopropyl)(cyclopropyl)methylamino)-4-(benzo[d]thiazol-5-ylamino)pyrimidine-5-carboxamide]
0.001 to 0.01	NC(=O)c1cnc(N[C@H](C2CC2)C2(N)CC2)nc1Nc1ccc2ncsc2c1 [Example 167, (R)-2-(1-(1-aminocyclopropyl)(cyclopropyl)methylamino)-4-(benzo[d]thiazol-6-ylamino)pyrimidine-5-carboxamide]
0.1 to 1	NC(=O)c1cnc(N[C@H](C2CC2)C2(N)CC2)nc1Nc1ccc(F)cc1 [Example 170, (R)-2-(1-(1-aminocyclopropyl)(cyclopropyl)methylamino)-4-(4-fluorophenylamino)pyrimidine-5-carboxamide]
0.01 to 0.1	NC(=O)c1cnc(N[C@@H]2CCOC[C@@H]2N)nc1Nc1cnc2ccccc2c1 [Example 177, 2-((3R,4R)-3-aminotetrahydro-2H-pyran-4-ylamino)-4-(quinolin-3-ylamino)pyrimidine-5-carboxamide]
0.01 to 0.1	NC(=O)c1cnc(N[C@@H]2CCOC[C@@H]2N)nc1Nc1ccc2scnc2c1 [Example 178, 2-((3R,4R)-3-aminotetrahydro-2H-pyran-4-ylamino)-4-(benzo[d]thiazol-5-ylamino)pyrimidine-5-carboxamide]
0.001 to 0.01	Cc1cccc(Nc2nc(N[C@@H]3CC[C@@H](C(=O)N4CCC4)C[C@@H]3N)ncc2C(N)=O)c1 [Example 191, 2-((1R,2S,4R)-2-amino-4-(azetidine-1-carbonyl)cyclohexylamino)-4-(m-tolylamino)pyrimidine-5-carboxamide]
0.01 to 0.1	Cc1csc(Nc2nc(N[C@H](CC(C)C)C(N)=O)ncc2C(N)=O)c1 [Example 194, (R)-2-(1-amino-4-methyl-1-oxopentan-2-ylamino)-4-(4-methylthiophen-2-ylamino)pyrimidine-5-carboxamide]

The remaining lines, values behind:

Structure (SMILES)	IC50 [µM]
Cc1cccc(Nc2nc(N[C@H](C)C3(N)CC3)ncc2C(N)=O)c1 [Example 145, (R)-2-(1-(1-aminocyclopropyl)ethylamino)-4-(m-tolylamino)pyrimidine-5-carboxamide]	0.001 to 0.01
Cc1cccc(Nc2nc(N[C@@H](c3ccccc3)C3(N)CC3)ncc2C(N)=O)c1 [Example 148, (5)-2-(1-(1-aminocyclopropyl)(phenyl)methylamino)-4-(m-tolylamino)pyrimidine-5-carboxamide]	0.1 to 1
NC(=O)c1cnc(N[C@H](C2CC2)C2(N)CC2)nc1Nc1cccc(-n2cccn2)c1 [Example 151, (R)-4-(3-(1H-pyrazol-1-yl)phenylamino)-2-(1-(1-aminocyclopropyl)(cyclopropyl)methylamino)pyrimidine-5-carboxamide]	0.001 to 0.01
NC(=O)c1cnc(N[C@H](C2CC2)C2(N)CC2)nc1Nc1cnc2ccccc2c1 [Example 152, (R)-2-(1-(1-aminocyclopropyl)(cyclopropyl)methylamino)-4-(quinolin-3-ylamino)pyrimidine-5-carboxamide]	0.001 to 0.01
NC(=O)c1cnc(N[C@H](C2CC2)C2(N)CC2)nc1Nc1cccc(F)c1 [Example 156, (R)-2-(1-(1-aminocyclopropyl)(cyclopropyl)methylamino)-4-(3-fluorophenylamino)pyrimidine-5-carboxamide]	0.001 to 0.01
CC(C)[C@@H](Nc1ncc(C(N)=O)c(Nc2cccc(F)c2)n1)C1(N)CC1 [Example 159, (R)-2-(1-(1-aminocyclopropyl)-2-methylpropylamino)-4-(3-fluorophenylamino)pyrimidine-5-carboxamide]	0.001 to 0.01
CC(C)[C@@H](Nc1ncc(C(N)=O)c(Nc2cc(F)cc(F)c2)n1)C1(N)CC1 [Example 160, (R)-2-(1-(1-aminocyclopropyl)-2-methylpropylamino)-4-(3,5-difluorophenylamino)pyrimidine-5-carboxamide]	0.01 to 0.1
NC(=O)c1cnc(N[C@@H]2CCCC(F)(F)[C@@H]2N)nc1Nc1cnc2ccccc2c1 [Example 168, 2-((1R,2R)-2-amino-3,3-difluorocyclohexylamino)-4-(quinolin-3-ylamino)pyrimidine-5-carboxamide]	0.1 to 1
NC(=O)c1cnc(N[C@@H]2CCCC(F)(F)[C@@H]2N)nc1Nc1ccc2ncccc2c1 [Example 169, 2-((1R,2R)-2-amino-3,3-difluorocyclohexylamino)-4-(quinolin-6-ylamino)pyrimidine-5-carboxamide]	0.01 to 0.1
NC(=O)c1cnc(N[C@H](C2CC2)C2(N)CC2)nc1Nc1csc2ncccc12 [Example 171, (R)-2-(1-(1-aminocyclopropyl)(cyclopropyl)methylamino)-4-(thieno[2,3-b]pyridine-3-ylamino)pyrimidine-5-carboxamide]	0.001 to 0.01
NC(=O)c1cnc(N[C@@H]2CCOC[C@@H]2N)nc1Nc1csc2ncccc12 [Example 179, 2-((3R,4R)-3-aminotetrahydro-2H-pyran-4-ylamino)-4-(thieno[2,3-b]pyridin-3-ylamino)pyrimidine-5-carboxamide]	0.01 to 0.1
NC(=O)c1cnc(N[C@@H]2CCOC[C@@H]2N)nc1Nc1ccc2ncccc2c1 [Example 180, 2-((3R,4R)-3-aminotetrahydro-2H-pyran-4-ylamino)-4-(quinolin-6-ylamino)pyrimidine-5-carboxamide]	0.001 to 0.01
NC(=O)c1cnc(N[C@@H]2CCOC[C@@H]2N)nc1Nc1ccc2ncsc2c1 [Example 181, 2-((3R,4R)-3-aminotetrahydro-2H-pyran-4-ylamino)-4-(benzo[d]thiazol-6-ylamino)pyrimidine-5-carboxamide]	0.01 to 0.1
NC(=O)c1cnc(Nc2ccccc2)nc1NC1CCC(N)CC1 (stereo not shown) [Example 183, 4-(4-aminocyclohexylamino)-2-(phenylamino)pyrimidine-5-carboxamide]	0.01 to 0.1
Cc1ccc(Nc2ncc(C(N)=O)c(N[C@H]3CC[C@@H](N)CC3)n2)cc1 [Example 184, 4-(4-aminocyclohexylamino)-2-(p-tolylamino)pyrimidine-5-carboxamide]	0.01 to 0.1
COc1ccc(Nc2ncc(C(N)=O)c(N[C@H]3CC[C@@H](N)CC3)n2)cc1 [Example 185, 4-(4-aminocyclohexylamino)-2-(4-methoxyphenylamino)pyrimidine-5-carboxamide]	0.01 to 0.1
NC(=O)c1cnc(Nc2ccc(Cl)cc2)nc1N[C@H]1CC[C@@H](N)CC1 [Example 186, 4-(4-aminocyclohexylamino)-2-(4-chlorophenylamino)pyrimidine-5-carboxamide]	0.01 to 0.1
